Data published in patent US20090036495A1, “Combinations Comprising Alpha-2-Delta Ligands and Ep4 Receptor Antagonists” (Pfizer, Inc., priority 2004, published 2009).

System: Male Sprague-Dawley rats
Test: Carrageenan-induced mechanical hyperalgesia (CIMH), paw withdrawal threshold
Type: in vivo
Conditions: rat, per orally
Protocol: Carrageenan-induced mechanical hyperalgesia (CIMH)[1] is utilized to evaluate analgesic activity of drugs against acute inflammatory pain.
1% carrageenan is prepared at least two days before use. An appropriate amount of λ-carrageenain is weighed into a 10 ml screw vial. Sterile saline is added to make 1% (w/v) suspension solution and the suspension is stirred for 8 hours with gentle heating to be dissolved obtain homogeneous suspension.
Male Sprague-Dawley rats, 4 W (Japan SLC or Charles River Japan), 100-130 g are used. Environment conditions are controlled at a 12-h light/dark cycle with (lights on 076:00 a.m.). and an ambient temperature of 23+/−2 deg. C. Prior to start the experiment, animals are housed under this condition for 4-5 days. Each group is used a group of 6-8 rats. The rats are fasted for 16-18 hours before use and the rats are trained for measurement of mechanical threshold using the apparatus for two days before use.
The paw withdrawal response of the rat to increased pressure on a right hindpaw is recorded as mechanical threshold. The threshold is defined as “pre value”. Hyperalgesia is induced by intraplantar injection of 0.1 ml of 1% carrageenain in the right hindpaw. The paw withdrawal threshold is measured at 3.5 and 4.5 hours after the carrageenan injection. Rats are randomly grouped by the paw withdrawal threshold at 4.5 hours and pre value after the carrageenan injection. Vehicle or test compounds (10 ml of 0.1% methylcellulose/1 kg body weight) are given per orally at 5.5 hours after the carrageenain injection. The paw withdrawal Mechanical threshold is measured by an analgesy meter at 4, 5, 6.5 and 7.5 hours after the carrageenin carrageenan injection. The threshold at 6.5 or 7.5 hours is determined as ‘post value’.
% change in threshold=(preost value−postre value)/(pre value)×100% inhibition=(B−A)/(C−A)×100
A=average of % change in threshold post values in disease control (vehicle treated) group B=average of % change in threshold post values in compound treated group C=average of pre values of all rats used
% inhibition=(A−B)/|A|×100
The data is analyzed with unpaired t-test or one-way ANOVA (plus multiple comparison test) for % change in thresholdpost values. Results are considered significant when p<0.05 versus disease control group.

| Compound | Inhibition (%) 2 hours post dosing (dose 3 mg/kg) [%] | Inhibition (%) 2 hours post dosing (dose 10 mg/kg) [%] | Inhibition (%) 2 hours post dosing (dose 30 mg/kg) [%] | Inhibition (%) 2 hours post dosing (dose 100 mg/kg) [%] | Inhibition (%) 2 hours post dosing (dose 0.3 mg/kg) [%] | Inhibition (%) 2 hours post dosing (dose 1 mg/kg) [%] |
| --- | --- | --- | --- | --- | --- | --- |
| CC(C)C[C@H](CN)CC(=O)O [Pregabalin, (S)-(+)-4-amino-3-(2-methylpropyl)butanoic acid] | 1.6 | 8.4 | 16.4 | 31 | – | – |
| C[C@H](NC(=O)c1cc(Cl)cnc1Oc1cccc(F)c1)c1ccc(C(=O)O)cc1 [4-[(1S)-1-({[5-chloro-2-(3-fluorophenoxy)pyridin-3-yl]carbonyl}amino)ethyl]benzoic acid] | 50 | – | – | – | 19.2 | 41.9 |
